Results taken from BindingDB's records for doi:10.7270/Q2Z31X54 (Burnham Center For Chemical Genomics, 2011).

What follows are compounds tested against T1, Endoribonuclease toxin MazF (Escherichia coli (strain K12), UniProt P0AE70) (assay: MazF toxin RNase activators, dose response, biochemical, fluorescence, single-stranded RNA substrate, uHTS hits (AID 588481)). Details: not given.
T1 sequence (P0AE70 whole entry): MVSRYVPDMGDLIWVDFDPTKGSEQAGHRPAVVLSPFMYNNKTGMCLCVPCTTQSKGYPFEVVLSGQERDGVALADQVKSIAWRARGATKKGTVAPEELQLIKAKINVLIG
In the case of `N=C(N)C1=CC(=O)/C(=C/C=c2ccc(=C(N)N)cc2)C=C1` [(4E)-4-[2-[4-[bis(azanyl)methylidene]cyclohexa-2,5-dien-1-ylidene]ethylidene]-3-oxidanylidene-cyclohexa-1,5-diene-1-carboximidamide;2-oxidanylethanesulfonic acid], the EC50 is reported as 4.77 µM.
In the case of `Oc1ccc2ccccc2c1C=Nn1c(O)csc1=S` [MLS002707175], the EC50 is reported as > 99 µM.
For `CC1(C)CC(=O)C(N=Nc2cc3c(cc2[N+](=O)[O-])OCCO3)C(=O)C1` [SMR000348183], the EC50 was > 99 µM.
For `Cc1[nH]c2ccccc2c1/C=C1\N=C(c2ccc(C(F)(F)F)cc2)OC1=O` [SMR000152363], the EC50 was > 99 µM.
In the case of `O=[N+]([O-])c1ccc(N=NCc2cccc3ccccc23)nc1` [N-(naphthalen-1-ylmethylideneamino)-5-nitro-pyridin-2-amine], the EC50 is reported as > 99 µM.
`CCN1C(=O)C(C=NN=Cc2ccccc2)c2ccc(C3=NNC(=O)CC3)cc21` (stereo not drawn) [benzaldehyde {[1-ethyl-2-oxo-6-(6-oxo-1,4,5,6-tetrahydro-3-pyridazinyl)-1,2-dihydro-3H-indol-3-ylidene]methyl}hydrazone] was tested, and the EC50 was > 99 µM.
With `Cc1nnc(N2C(=O)C(=O)C(C(=O)c3ccco3)C2c2ccc(C(C)(C)C)cc2)s1` (stereo not drawn) [2-(4-tert-butylphenyl)-3-(furan-2-carbonyl)-4-hydroxy-1-(5-methyl-1,3,4-thiadiazol-2-yl)-2H-pyrrol-5-one] the EC50 was > 99 µM.
Work on `CSc1nnc(N2C(=O)C(=O)C(C(=O)c3ccc(C)o3)C2c2ccc(C)cc2)s1` (stereo not drawn) [SMR000650392] yielded an EC50 of 9.87 µM.
With `CCC(N=Nc1cccc(C)c1)c1cnnc(SC)n1` (stereo not drawn) [MLS000705906] the EC50 was > 99 µM.
`Clc1cccc(C(Cc2nc3ccccc3[nH]2)N=Nc2ccccc2)c1` (stereo not drawn) [MLS000374846] was tested, and the EC50 was > 99 µM.
In the case of `O=c1[nH]c(N=NCc2ccc(F)cc2)nc2ccccc12` [MLS000700887], the EC50 is reported as 7.12 µM.
`N#CC(C(=O)c1ccc([N+](=O)[O-])o1)c1nc2ccccc2[nH]1` (stereo not drawn) was tested, and the EC50 was > 99 µM.
Compound `CCOc1cccc(C2C(C(=O)c3ccc(C)o3)C(=O)C(=O)N2c2nccs2)c1` (stereo not drawn) [2-(3-ethoxyphenyl)-3-(5-methylfuran-2-yl)carbonyl-4-oxidanyl-1-(1,3-thiazol-2-yl)-2H-pyrrol-5-one] has an EC50 of 16.9 µM.
In the case of `Cn1c(C(C#N)C(=O)COc2ccc3ccccc3c2)nc2ccccc21` (stereo not drawn) [(2E)-2-(3-methyl-1H-benzimidazol-2-ylidene)-4-(2-naphthalenyloxy)-3-oxobutanenitrile], the EC50 is reported as > 99 µM.
For `Cc1oc(C)c2c(=O)ccc3c(c12)OC(=N)C(C#N)C3c1ccccc1` (stereo not drawn), the EC50 was > 99 µM.
For `Cc1cc(O)n(-c2ccc(NCc3ccc(Cl)cc3)c([N+](=O)[O-])c2)c1O` [1-{4-[(4-chlorobenzyl)amino]-3-nitrophenyl}-3-methylpyrrolidine-2,5-dione], the EC50 was 96.1 µM.
`CCSc1nnc(N2C(=O)C(=O)C(C(=O)c3ccco3)C2c2cccc(OC)c2)s1` (stereo not drawn) [MLS001140620] was tested, and the EC50 was > 99 µM.
For `CC1CC(=O)C2=C(C1)OC(=N)C(C#N)C2c1coc2ccccc2c1=O` (stereo not drawn), the EC50 was > 99 µM.
`COc1ccc(N=CCC(=O)c2ccc(C)cc2)cc1OC` [SMR000269732] was tested, and the EC50 was > 99 µM.
`O=C1N=c2ccc(Br)cc2=C1NNc1ccc(F)cc1` [SMR000564049] was tested, and the EC50 was > 99 µM.
In the case of `N#Cc1ccc(-n2c(O)c3[nH][nH]c(C(=O)c4ccc5ccccc5n4)c-3c2=O)cc1` [4-[(3aS,6aS)-4,6-dioxo-3-[oxo(2-quinolinyl)methyl]-3a,6a-dihydro-1H-pyrrolo[3,4-c]pyrazol-5-yl]benzonitrile], the EC50 is reported as 15.1 µM.
With `Cc1ccc(NN=C2C(=O)N(CN3CCOCC3)c3ccccc32)cc1` [(3Z)-3-[(4-methylphenyl)hydrazinylidene]-1-(4-morpholinylmethyl)-2-indolone] the EC50 was 39.4 µM.
`O=[N+]([O-])c1cc/c(=N\c2ccccc2O)c2no[nH]c1-2` [MLS001206694] was tested, and the EC50 was > 99 µM.
For `O=C1C(=O)N(c2nccs2)C(c2ccccc2)C1C(=O)c1cc2ccccc2o1` (stereo not drawn) [3-(1-benzofuran-2-carbonyl)-4-hydroxy-2-phenyl-1-(1,3-thiazol-2-yl)-2H-pyrrol-5-one], the EC50 was > 99 µM.
`COc1ccc(C=C2CCCC(C(=O)C(F)(F)F)C2=O)cc1` (stereo not drawn) [SMR000142699] was tested, and the EC50 was > 99 µM.
In the case of `O=C1Nc2ccccc2C1=NNc1ccccc1` [3-(phenylhydrazo)-2-indolone], the EC50 is reported as > 99 µM.
With `CCCCOc1cccc(C2C(C(=O)c3ccc(C)o3)C(=O)C(=O)N2c2nnc(C)s2)c1` (stereo not drawn) [2-(3-butoxyphenyl)-3-(5-methylfuran-2-yl)carbonyl-1-(5-methyl-1,3,4-thiadiazol-2-yl)-4-oxidanyl-2H-pyrrol-5-one] the EC50 was > 99 µM.
Compound `CCCCN1C(=O)C(=NNc2ccccc2O)c2ccccc21` [(3Z)-1-butyl-3-[(2-hydroxyphenyl)hydrazinylidene]indol-2-one] has an EC50 of 44.9 µM.
Compound `O=[N+]([O-])c1ccc(N=NCc2ccc3c(c2)OCO3)nc1` [N-(1,3-benzodioxol-5-ylmethylideneamino)-5-nitro-pyridin-2-amine] has an EC50 of 40.5 µM.
For `Cc1ccc(N/N=C2/C(=O)Nc3ccc(F)cc32)cc1` [5-fluoro-3-[2-(4-methylphenyl)hydrazono]indolin-2-one], the EC50 was > 99 µM.
With `COCc1n[nH]c2c1C(c1cc(OC)c(O)c(OC)c1)C(C#N)C(=N)O2` (stereo not drawn) [6-azanyl-4-(3,5-dimethoxy-4-oxidanyl-phenyl)-3-(methoxymethyl)-2,4-dihydropyrano[2,3-c]pyrazole-5-carbonitrile] the EC50 was > 99 µM.
In the case of `O=C1N=c2ccccc2=C1NNc1cccc(Cl)c1` [(3E)-1H-indole-2,3-dione 3-[(3-chlorophenyl)hydrazone]], the EC50 is reported as > 99 µM.
For `CCN(CC)c1ccc(CN=Nc2ccc([N+](=O)[O-])cn2)cc1` [N-[[4-(diethylamino)phenyl]methylideneamino]-5-nitro-pyridin-2-amine], the EC50 was > 99 µM.
With `O=C1N=c2ccccc2=C1NNc1ccccc1F` the EC50 was > 99 µM.
In the case of `Cc1ccc2nc(N3C(=O)C(=O)C(C(=O)c4ccco4)C3c3cccs3)sc2c1` (stereo not drawn), the EC50 is reported as > 99 µM.
`O=C1NC(=O)N(C2CCCCC2)C(=O)C1=CCC=Nc1ccccc1` [(5Z)-5-[(E)-3-anilinoprop-2-enylidene]-1-cyclohexyl-1,3-diazinane-2,4,6-trione] was tested, and the EC50 was > 99 µM.
In the case of `COc1cc2c(cc1OC)C(CC(=O)c1ccc([N+](=O)[O-])c(C)c1)=NCC2` [(2Z)-2-(6,7-dimethoxy-3,4-dihydro-2H-isoquinolin-1-ylidene)-1-(3-methyl-4-nitrophenyl)ethanone], the EC50 is reported as > 99 µM.
`O=C(c1ccc2ccccc2n1)c1[nH][nH]c2c(O)n(-c3cccc(F)c3)c(=O)c1-2` [(3aS,6aS)-5-(3-fluorophenyl)-3-[oxo(2-quinolinyl)methyl]-3a,6a-dihydro-1H-pyrrolo[3,4-c]pyrazole-4,6-dione] was tested, and the EC50 was 20.5 µM.
Compound `C=CCOc1cccc(C2C(C(=O)c3ccc(C)o3)C(=O)C(=O)N2c2nccs2)c1` (stereo not drawn) [3-(5-methylfuran-2-yl)carbonyl-4-oxidanyl-2-(3-prop-2-enoxyphenyl)-1-(1,3-thiazol-2-yl)-2H-pyrrol-5-one] has an EC50 of 11.4 µM.
For `COc1cccc(C2=Nc3nnnn3C(c3ccc(N(C)C)cc3)C2)c1` (stereo not drawn) [4-[5-(3-methoxyphenyl)-1,7-dihydro-[1,2,3,4]tetrazolo[1,5-a]pyrimidin-7-yl]-N,N-dimethyl-aniline], the EC50 was > 99 µM.
In the case of `Cc1ccc(C2=Nc3nnnn3C(c3ccc(N(C)C)cc3)C2)cc1` (stereo not drawn) [SMR000092467], the EC50 is reported as > 99 µM.
`CCOc1ccc(N=CCC(=O)c2ccc(OC)cc2)c([N+](=O)[O-])c1` was tested, and the EC50 was > 99 µM.
In the case of `C=c1[nH]n(-c2ccccc2)c(=O)c1=Cc1cc(C)n(C2CC2)c1C` [MLS001018445], the EC50 is reported as > 99 µM.
In the case of `COc1ccc(Nc2oc3cc(=O)ccc-3cc2C(=O)NCC2CCCO2)c(OC)c1` (stereo not drawn) [2-(2,4-dimethoxyanilino)-7-oxo-N-(2-oxolanylmethyl)-1-benzopyran-3-carboxamide], the EC50 is reported as > 99 µM.
For `CCOC(=O)c1c(NC=C2C(=O)NC(=O)NC2=O)sc2c1CCC2` [ethyl 2-{[(1E)-(2,4,6-trioxohexahydropyrimidin-5-yl)methylene]amino}-5,6-dihydro-4H-cyclopenta[b]thiophene-3-carboxylate], the EC50 was > 99 µM.
For `CSc1ccc(C2C(C(=O)c3ccco3)C(=O)C(=O)N2c2nnc(SC)s2)cc1` (stereo not drawn) [3-(furan-2-carbonyl)-4-hydroxy-2-(4-methylsulfanylphenyl)-1-(5-methylsulfanyl-1,3,4-thiadiazol-2-yl)-2H-pyrrol-5-one], the EC50 was > 99 µM.
For `O=C(c1ccc2ccccc2n1)c1[nH][nH]c2c(O)n(-c3cccc(C(F)(F)F)c3)c(=O)c1-2` [SMR000212847], the EC50 was 47.9 µM.
`Cc1ccc(Cl)c2c1=NC(=O)C=2NNc1ccccc1` was tested, and the EC50 was 19.1 µM.
For `O=C1N=c2ccccc2=C1NNc1ccc(F)cc1`, the EC50 was > 99 µM.
In the case of `COc1ccc(CN=Nc2ccc([N+](=O)[O-])cc2S(=O)(=O)N2CCN(C)CC2)cc1` [MLS000553953], the EC50 is reported as > 99 µM.
With `COc1cc(C2c3c(-c4cccs4)n[nH]c3OC(=N)C2C#N)cc(OC)c1O` (stereo not drawn) [SMR000275523] the EC50 was > 99 µM.
In the case of `CCCN1C(=O)C(=NNc2ccc3ccccc3n2)c2ccccc21` [(3Z)-1-propyl-3-(2-quinolinylhydrazinylidene)-2-indolone], the EC50 is reported as > 99 µM.
`O=[N+]([O-])c1ccc(N=NCc2ccccc2)c(F)c1` [2-fluoranyl-4-nitro-N-[(phenylmethylidene)amino]aniline] was tested, and the EC50 was > 99 µM.
For `Cc1[nH]c2ccccc2c1/C=C1\N=C(c2ccc(F)cc2)OC1=O` [2-(4-fluorophenyl)-4-[(2-methyl-1H-indol-3-yl)methylene]-1,3-oxazol-5(4H)-one], the EC50 was > 99 µM.
`O=c1cc2oc(O)c3cc(O)c(O)c(O)c3c-2oc1=O` [6,8,9,10-tetrahydroxypyran[3,2-c]isochromene-2,3-quinone] showed an EC50 of 80.5 µM.
`O=C1Nc2ccc([N+](=O)[O-])cc2C1=NNc1ccc(F)cc1` was tested, and the EC50 was > 99 µM.
`Cc1cccc(NNC2=c3cc(F)ccc3=NC2=O)c1` [MLS000673317] showed an EC50 of 38.7 µM.

Same assay, conditions: inactive by the depositor's call
Compound `Cc1ccc(S(=O)(=O)N[N-][C+]2CCC(C(C)(C)C)CC2)cc1[N+](=O)[O-]` [SMR000241764] has an EC50 of 52 µM.
